PMC11274521 (Cells, 2024)
Each block holds one molecule with its values, some of them ahead of it. Ends that are not written are not given here. Peptide text beside a SMILES is read from it. * marks the point of attachment. Biotin = O=C1N[C@H]2[C@H](CS[C@H]2CCCCC(=O)*)N1; Ahx = NCCCCCC(=O)O

How the values were obtained:
[1] = system: albumin (HSA, BSA, FBS); test: Biotin pulldown of albumin; type: binding, human, bovine; conditions: 1 mM biotinylated peptide, 0.03 mM HSA, BSA or FBS, 2 h 4 °C, streptavidin resin
Protocol: For immunoprecipitation (IP), 300 µg of lysate was mixed with 5 µg of human anti-PD-1 (#AF1086, R&D) or mouse anti-PD-L1 (#PA5-20343, Invitrogen-Thermo Fisher Scientific) at 4 °C for 2 h followed by 30 min incubation with 20 µL of Pierce™ Protein A/G Magnetic Beads (ThermoFisher Scientific; catalog #88802) at room temperature followed by Western blot to detect the interacted proteins. In the biotin pulldown procedure, 1 mM biotinylated peptides were incubated with 0.03 mM of albumin (BSA, HSA, the equivalent amount FBS) for 2 h at 4 °C followed by incubating with 50 µL Streptavidin resin (Genescript, Piscataway, NJ, USA) for 1 hr at room temperature, followed by SDS-PAGE to detect the bound albumin.

[2] = system: cells
[3] = mouse, in vivo
[4] = physchem; conditions: aqueous buffer
[5] = target: T1, bovine serum albumin (bovine, UniProt P02769 25-607); test: pull-down; 1 mM biotinylated peptide with 0.03 mM albumin (HSA or BSA) for 2 h at 4 °C, then Streptavidin resin for 1 h at room temperature; bound albumin detected by SDS-PAGE; conditions: both partners purified
T1 construct: bovine serum albumin, used as BSA and as the albumin in an equivalent amount of FBS; also called BSA; albumin of fetal bovine serum (FBS); source: also as the albumin in fetal bovine serum (FBS)
T1 sequence (P02769 25-607): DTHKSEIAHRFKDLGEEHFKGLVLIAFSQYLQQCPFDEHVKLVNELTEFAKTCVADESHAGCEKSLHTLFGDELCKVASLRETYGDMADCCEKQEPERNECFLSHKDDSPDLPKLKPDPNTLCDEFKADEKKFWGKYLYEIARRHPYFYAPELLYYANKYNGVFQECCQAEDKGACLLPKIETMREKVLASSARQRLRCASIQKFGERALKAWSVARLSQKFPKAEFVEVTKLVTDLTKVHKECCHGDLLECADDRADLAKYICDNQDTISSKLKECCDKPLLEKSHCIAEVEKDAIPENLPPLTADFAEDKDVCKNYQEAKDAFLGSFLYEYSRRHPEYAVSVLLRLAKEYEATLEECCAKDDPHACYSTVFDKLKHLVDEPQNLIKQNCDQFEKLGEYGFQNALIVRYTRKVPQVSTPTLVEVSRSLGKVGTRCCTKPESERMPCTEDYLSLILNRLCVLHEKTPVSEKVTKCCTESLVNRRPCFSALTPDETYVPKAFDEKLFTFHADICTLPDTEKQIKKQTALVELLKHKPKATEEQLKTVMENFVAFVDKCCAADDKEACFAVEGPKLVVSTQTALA

[6] = target: T2, human serum albumin (human, UniProt P02768 25-609); test: as above; conditions: both partners purified
T2 construct: human serum albumin (HSA); also called HSA

Molecule: CC[C@H](C)[C@H](NC(=O)[C@H](CCCNC(=N)N)NC(=O)[C@H](CC(C)C)NC(=O)[C@H](CC(N)=O)NC(=O)[C@H](CO)NC(=O)[C@@H](NC(=O)[C@@H](NC(=O)[C@H](CC(N)=O)NC(=O)[C@H](Cc1ccccc1)NC(=O)[C@H](CC(C)C)NC(=O)[C@H](CCCCN)NC(=O)[C@H](CCC(=O)O)NC(=O)[C@H](CCC(=O)O)NC(=O)[C@H](CCCNC(=N)N)NC(=O)CCCCCNC(=O)[C@H](CCC(=O)O)NC(=O)[C@H](Cc1ccc(O)cc1)NC(=O)[C@H](CCC(=O)O)NC(=O)[C@H](CCCCN)NC(=O)[C@H](CCC(=O)O)NC(=O)[C@H](Cc1ccc(O)cc1)NC(=O)[C@H](CCC(=O)O)NC(=O)CCCCCNC(=O)CCCC[C@@H]1SC[C@@H]2NC(=O)N[C@@H]21)C(C)C)[C@@H](C)O)C(=O)N[C@@H](CC(N)=O)C(=O)N[C@H](C(N)=O)[C@@H](C)O [Biotin-EYEKEYE-L7N]
- Binding to albumin (pulldown, SDS-PAGE) [1]: no binding

Molecule: CC[C@H](C)[C@H](NC(=O)[C@H](CCCNC(=N)N)NC(=O)[C@H](CC(C)C)NC(=O)[C@H](CC(N)=O)NC(=O)[C@H](CO)NC(=O)[C@@H](NC(=O)[C@@H](NC(=O)[C@H](CC(N)=O)NC(=O)[C@H](Cc1ccccc1)NC(=O)[C@H](CC(C)C)NC(=O)[C@H](CCCCN)NC(=O)[C@H](CCC(=O)O)NC(=O)[C@H](CCC(=O)O)NC(=O)[C@H](CCCNC(=N)N)NC(=O)CCCCCNC(=O)CCCC[C@@H]1SC[C@@H]2NC(=O)N[C@@H]21)C(C)C)[C@@H](C)O)C(=O)N[C@@H](CC(N)=O)C(=O)N[C@H](C(N)=O)[C@@H](C)O [Biotin-L7N] ({Biotin-Ahx}-REEKLFNVTSNLRINT-NH2)
- Binding to albumin (pulldown, SDS-PAGE) [1]: no binding

Molecule: REEKLFNVTSNLRINT-NH2 [L7N]
- Toxicity to cells [2]: no significant toxicity
- Immune reactions of mice [3]: adverse immune reactions

More lines, now with the values ahead:

- solubility [4]: < 10000 µg/mL
Molecule: REEKLFNVTSTLRINT-NH2 [L7]

- binding result [5]: binds
- binding result [6]: binds
B1: Biotin-PA-scramble (peptide)
peptide: EYEKEYETKLREIFVNLRTNSEN
modifications: biotin-ahx at the N-terminus; palmitic acid on the Lys side chain of EYEKEYE; ahx (6-aminohexanoic acid) between EYEKEYE and the peptide
notes: peptide tag that carries palmitic acid on its Lys; also called biotin–PA–scrambled peptide; PA-coupled scramble peptide; source: synthetic peptide (Fmoc chemistry); not shown: biotin, N-terminal, kept
